From patent publication US20110280807A1, “Methods and Models for Stress-Induced Analgesia” (UNIVERSITY OF GEORGIA RESEARCH FOUNDATION, INC., priority 2005, published 2011)
“Also recorded” adds a separate entry of the source.

Legend:
rats [1] = test: Tolerance studies: repeated agonist injections, then footshock stress analgesia; format: in vivo, rat
vanilloid VR1 receptors = vanilloid VR1 receptors (Homo sapiens, UniProt Q8NER1); conditions: cited from earlier work
rats [2] = test: Morphine antinociception in rats treated chronically with WIN55,212-2 or vehicle; format: in vivo, rat; conditions: morphine 2.5 mg/kg s.c. on day 15
[3] = system: rats subjected to brief, continuous footshock; test: Nonopioid stress-induced analgesia after brief continuous footshock, tail-flick test, systemic drug; format: in vivo, rat
rats [4] = test: Tail-flick latencies in the absence of the stressor / basal nociceptive thresholds; format: in vivo, rat
[5] = system: dorsolateral periaqueductal gray; test: PAG injection studies: microinjection into dorsolateral periaqueductal gray, stress analgesia; format: in vivo, rat; conditions: for basal nociceptive thresholds immediately prior to the stressor: after microinjection into dorsolateral periaqueductal gray
rats [6] = test: Δ^9-THC sensitization study (antinociception after stress or no stress); format: in vivo, rat; conditions: 10 mg/kg i.p. 24 h following stress or no stress; tail-flick 28-32 min after drug
[7] = 5 mg/kg i.p. 20 min prior to footshock

Chain of vanilloid VR1 receptors (Q8NER1 whole entry): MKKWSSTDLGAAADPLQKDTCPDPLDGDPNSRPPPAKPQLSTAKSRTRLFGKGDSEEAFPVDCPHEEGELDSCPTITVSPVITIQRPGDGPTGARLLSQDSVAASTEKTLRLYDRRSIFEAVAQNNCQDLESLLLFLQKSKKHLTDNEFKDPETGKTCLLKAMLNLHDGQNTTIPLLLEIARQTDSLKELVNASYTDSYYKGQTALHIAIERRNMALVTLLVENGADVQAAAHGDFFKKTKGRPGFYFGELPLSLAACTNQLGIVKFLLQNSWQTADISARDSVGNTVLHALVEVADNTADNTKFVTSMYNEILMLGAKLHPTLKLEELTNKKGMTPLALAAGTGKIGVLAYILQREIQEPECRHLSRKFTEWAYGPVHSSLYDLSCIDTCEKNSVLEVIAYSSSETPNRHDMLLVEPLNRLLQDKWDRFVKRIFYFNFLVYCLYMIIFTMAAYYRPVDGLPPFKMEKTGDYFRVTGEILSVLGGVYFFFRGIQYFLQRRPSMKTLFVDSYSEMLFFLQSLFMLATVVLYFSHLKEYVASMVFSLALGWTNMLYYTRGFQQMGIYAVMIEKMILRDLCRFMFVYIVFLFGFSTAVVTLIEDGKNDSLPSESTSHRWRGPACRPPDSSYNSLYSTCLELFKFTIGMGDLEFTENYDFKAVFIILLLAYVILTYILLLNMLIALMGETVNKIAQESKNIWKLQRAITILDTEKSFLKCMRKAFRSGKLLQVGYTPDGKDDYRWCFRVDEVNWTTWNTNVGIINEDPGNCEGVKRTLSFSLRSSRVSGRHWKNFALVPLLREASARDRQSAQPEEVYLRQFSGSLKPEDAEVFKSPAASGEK

Compound: Cc1c(C(=O)c2cccc3ccccc23)c2cccc3c2n1[C@H](CN1CCOCC1)CO3 [WIN55,212-2]
- stress analgesia after acute cannabinoid (rats [1]; 10 mg/kg i.p. on day 14, 24 h prior to footshock, vs vehicle): stress analgesia was increased
- post-injection tail-flick latencies (tolerance to cannabinoid antinociception) (rats [1]; 10 mg/kg i.p. x 14 days, days 2, 7 and 14): higher on day 2 compared to day 7 or 14; also recorded: induced tolerance to cannabinoid antinociception
- stress analgesia in cannabinoid-tolerant rats (rats [1]; chronic 10 mg/kg i.p. x 14 days, footshock 24 h after last injection, vs vehicle or acute group): SIA was attenuated; also recorded: Stress analgesia was attenuated

Compound: CCCCC/C=C\C/C=C\C/C=C\C/C=C\CCCC(=O)NCCO [anandamide, arachidonylethanolamide]
- binding to VR1 (vanilloid VR1 receptors): binds to VR1 with low affinity

Compound: CN1CC[C@]23c4c5ccc(O)c4O[C@H]2[C@@H](O)C=C[C@H]3[C@H]1C5 [morphine]
- morphine analgesia in cannabinoid-tolerant group relative to controls (rats [2]): modest enhancement in morphine analgesia
- post-morphine tail-flick latencies Mean±SEM (rats [2]; rats treated chronically with WIN55,212-2): 6.2 ± 0.25 s
- post-morphine tail-flick latencies Mean±SEM (rats [2]; rats treated chronically with vehicle): 5.3 ± 0.21 s
- post-morphine tail-flick latencies (tolerance to morphine antinociception) (rats [1]; 10 mg/kg s.c. x 7 days, days 1 and 7): higher on day 1 compared to day 7
- stress analgesia in morphine-tolerant rats (rats [1]; chronic morphine 10 mg/kg s.c. x 7 days vs vehicle, footshock 24 h after last injection): SIA did not differ; also recorded: No differences in stress analgesia

Compound: Cc1c(C(=O)NN2CCCCC2)nn(-c2ccc(Cl)cc2Cl)c1-c1ccc(Cl)cc1 [SR141716A]
- inhibition of vanilloid VR1 receptors (vanilloid VR1 receptors): inhibits vanilloid VR1 receptors at high concentrations
- effect on AA-5-HT potentiation of stress analgesia ([3]; 1 mg/kg i.p. ten min prior to AA-5-HT 10 mg/kg i.p.): blocked
- effect on stress analgesia (tail-flick latencies after footshock) [3, 7]: blocks SIA; also recorded: markedly attenuated
- tail-flick latencies in the absence of the stressor (rats [4]; no footshock, same times): failed to alter tail-flick latencies in the absence of footshock
- effect on stress analgesia after site-specific administration ([5]; 1 μg into dorsolateral periaqueductal gray, 5 min before footshock): suppressed; also recorded: blocked nonopioid stress analgesia
- basal nociceptive thresholds immediately prior to the stressor [5]: absence of changes in basal nociceptive thresholds

Compound: O=C1CC[C@@]2(O)[C@H]3Cc4ccc(O)c5c4[C@@]2(CCN3CC2CC2)[C@H]1O5 [naltrexone]
- effect on stress analgesia (tail-flick latencies after footshock) ([3]; 14 mg/kg i.p. 20 min prior to footshock): not naltrexone or SR144528 blocks SIA; also recorded: neither the opioid antagonist naltrexone (14 mg/kg i.p.) nor the CB2 antagonist SR144528 altered stress analgesia

Compound: CCCCC/C=C\C/C=C\C/C=C\C/C=C\CCCC(=O)NCCc1c[nH]c2ccc(O)cc12 [AA-5-HT, arachidonoylserotonin]
- effect on stress analgesia (tail-flick latencies after footshock) ([3]; 10 mg/kg i.p., footshock 65 min following administration (FAAH inhibition study)): Potentiation of SIA; also recorded: increased the magnitude and duration of cannabinoid stress analgesia
- effect on stress analgesia after site-specific administration ([5]; 10 μg into dorsolateral periaqueductal gray, 35 min before footshock): enhanced SIA; also recorded: enhanced nonopioid stress analgesia
- basal nociceptive thresholds immediately prior to the stressor [5]: absence of changes in basal nociceptive thresholds

Compound: Oc1cc2c(cc1O)CN(C(=S)NCCc1ccc(Cl)cc1)CCC2 [capsazepine]
- effect on stress analgesia (tail-flick latencies after footshock) ([3]; 10 mg/kg i.p. 20 min prior to footshock (capsazepine)): failed to alter SIA; also recorded: did not alter stress analgesia

Compound: SR144528
- effect on stress analgesia (tail-flick latencies after footshock) [3, 7]: not naltrexone or SR144528 blocks SIA; also recorded: neither the opioid antagonist naltrexone (14 mg/kg i.p.) nor the CB2 antagonist SR144528 altered stress analgesia

Compound: CCCCCc1cc(O)c2c(c1)OC(C)(C)[C@@H]1CCC(C)=C[C@@H]21 [Δ^9-THC, Δ^9-tetrahydrocannabinol]
- effect on stress analgesia (tail-flick latencies after footshock) ([3]; 10 mg/kg i.p. 20 min prior to footshock (Δ^9-THC), vs vehicle): potentiated SIA relative to vehicle; also recorded: enhanced the magnitude and the duration of nonopioid stress analgesia
- Δ^9-THC-induced antinociception in shocked vs non-shocked rats (rats [6]): greater in rats subjected to footshock; also recorded: greater in rats subjected previously to the stressor

Compound: Cc1c(C(=O)NN2CCCCC2)nn(-c2ccc(Cl)cc2Cl)c1-c1ccc(I)cc1 [AM251]
- effect on stress analgesia (tail-flick latencies after footshock) [3, 7]: suppressed SIA; also recorded: blocked this stress analgesia
- basal nociceptive thresholds (rats [4]; 5 mg/kg i.p., before the stressor): absence of changes in basal nociceptive thresholds
